Experimental data as given in US20240270698A2, “NOVEL PYRIMIDINE DERIVATIVE AND USE THEREOF” (KOREA RESEARCH INSTITUTE OF CHEMICAL TECHNOLOGY, priority 2019, published 2024).

Columns and labels:
[1] = biological target: T1, human recombinant LRRK2 protein (Homo sapiens, UniProt Q5S007); test: LRRK2 kinase activity assay (Eurofins, gamma-33P-ATP, filtermat scintillation counting); format: biochemical; settings: human recombinant LRRK2, 40 minutes at room temperature
T1 construct: purchased Eurofins
Method: (§1) Compounds 1 to 119 synthesized in Example 1 according to the present disclosure were assayed for inhibitory activity against MLK3/LRRK2 enzymes and anticancer activity against HepG2/HS746T cancer cells, and the results are summarized in Table 1, below.
(§2) Inhibitory activity against MLK3 and LRRK2 enzymes was evaluated in Eurofins. In brief, human recombinant MLK3 protein was mixed with the compounds in a reaction buffer (8 mM MOPS (pH 7.0), 0.2 mM EDTA, 0.33 mg/mL myelin basic protein, 5 mM DTT) to which a mixture of 10 mM magnesium acetate and gamma-33P-ATP was then added before incubation at room temperature for 120 minutes. Afterward, the reaction was terminated with 0.5% phosphoric acid. Ten μL of the total mixture was spotted onto a P30 filtermat which was then washed four times for 4 minutes with 0.425% phosphoric acid and once in methanol prior to scintillation counting. Values for the activity of MLK3 were expressed as % of the control. For the activity of LRRK2, human recombinant LRRK2 protein was mixed with the compounds in a reaction buffer (50 mM HEPES (pH 8.0), 0.2 mM EDTA, 0.01% Brij-35, 1% (w/v) BSA, 5 mM DTT, 250 uM substrate peptide RLGRDKYKTLRQIRQ) and then reacted with a mixture of 10 mM magnesium acetate and gamma-33P-ATP at room temperature for 40 minutes. Afterward, the reaction was terminated with 0.5% phosphoric acid. Ten μL of the total mixture was spotted onto a P30 filtermat which was then washed four times for 4 minutes with 0.425% phosphoric acid and once in methanol prior to scintillation counting. Values for the activity of LRRK2 were expressed as % of the control.

HepG2 cancer cells = test: Anticancer activity, cell viability by CCK-8, HepG2; format: cell-based; settings: HepG2, 10 μM, 72 hours
Method: (§3) Compounds 1 to 119 synthesized in Example 1 according to the present disclosure were assayed for inhibitory activity against MLK3/LRRK2 enzymes and anticancer activity against HepG2/H[…] cancer cells, and the results are summarized in Table 1, below. Assay for anticancer activity was conducted as follows. HepG2 and H[…] cancer cells were purchased from the Korean Cell Line Bank and cultured according to the instruction provided thereby. One hundred μL of a culture of the cells were seeded at a density of 4,000 cells/well into 96-well plates. After 24 hours, the cells were treated with the compounds for 72 hours. Then, cell viability was assayed using CCK-8 and expressed as % of the control.

[2] = biological target: T2, human recombinant MLK3 protein (Homo sapiens, UniProt Q16584); test: MLK3 kinase activity assay (Eurofins, gamma-33P-ATP, filtermat scintillation counting); format: biochemical; settings: human recombinant MLK3, 120 minutes at room temperature
T2 construct: purchased Eurofins
Method: as §1, §2

HS746T cancer cells = test: Anticancer activity, cell viability by CCK-8, HS746T; format: cell-based; settings: 72 hours
Method: as §3

T1 sequence (Q5S007 whole entry): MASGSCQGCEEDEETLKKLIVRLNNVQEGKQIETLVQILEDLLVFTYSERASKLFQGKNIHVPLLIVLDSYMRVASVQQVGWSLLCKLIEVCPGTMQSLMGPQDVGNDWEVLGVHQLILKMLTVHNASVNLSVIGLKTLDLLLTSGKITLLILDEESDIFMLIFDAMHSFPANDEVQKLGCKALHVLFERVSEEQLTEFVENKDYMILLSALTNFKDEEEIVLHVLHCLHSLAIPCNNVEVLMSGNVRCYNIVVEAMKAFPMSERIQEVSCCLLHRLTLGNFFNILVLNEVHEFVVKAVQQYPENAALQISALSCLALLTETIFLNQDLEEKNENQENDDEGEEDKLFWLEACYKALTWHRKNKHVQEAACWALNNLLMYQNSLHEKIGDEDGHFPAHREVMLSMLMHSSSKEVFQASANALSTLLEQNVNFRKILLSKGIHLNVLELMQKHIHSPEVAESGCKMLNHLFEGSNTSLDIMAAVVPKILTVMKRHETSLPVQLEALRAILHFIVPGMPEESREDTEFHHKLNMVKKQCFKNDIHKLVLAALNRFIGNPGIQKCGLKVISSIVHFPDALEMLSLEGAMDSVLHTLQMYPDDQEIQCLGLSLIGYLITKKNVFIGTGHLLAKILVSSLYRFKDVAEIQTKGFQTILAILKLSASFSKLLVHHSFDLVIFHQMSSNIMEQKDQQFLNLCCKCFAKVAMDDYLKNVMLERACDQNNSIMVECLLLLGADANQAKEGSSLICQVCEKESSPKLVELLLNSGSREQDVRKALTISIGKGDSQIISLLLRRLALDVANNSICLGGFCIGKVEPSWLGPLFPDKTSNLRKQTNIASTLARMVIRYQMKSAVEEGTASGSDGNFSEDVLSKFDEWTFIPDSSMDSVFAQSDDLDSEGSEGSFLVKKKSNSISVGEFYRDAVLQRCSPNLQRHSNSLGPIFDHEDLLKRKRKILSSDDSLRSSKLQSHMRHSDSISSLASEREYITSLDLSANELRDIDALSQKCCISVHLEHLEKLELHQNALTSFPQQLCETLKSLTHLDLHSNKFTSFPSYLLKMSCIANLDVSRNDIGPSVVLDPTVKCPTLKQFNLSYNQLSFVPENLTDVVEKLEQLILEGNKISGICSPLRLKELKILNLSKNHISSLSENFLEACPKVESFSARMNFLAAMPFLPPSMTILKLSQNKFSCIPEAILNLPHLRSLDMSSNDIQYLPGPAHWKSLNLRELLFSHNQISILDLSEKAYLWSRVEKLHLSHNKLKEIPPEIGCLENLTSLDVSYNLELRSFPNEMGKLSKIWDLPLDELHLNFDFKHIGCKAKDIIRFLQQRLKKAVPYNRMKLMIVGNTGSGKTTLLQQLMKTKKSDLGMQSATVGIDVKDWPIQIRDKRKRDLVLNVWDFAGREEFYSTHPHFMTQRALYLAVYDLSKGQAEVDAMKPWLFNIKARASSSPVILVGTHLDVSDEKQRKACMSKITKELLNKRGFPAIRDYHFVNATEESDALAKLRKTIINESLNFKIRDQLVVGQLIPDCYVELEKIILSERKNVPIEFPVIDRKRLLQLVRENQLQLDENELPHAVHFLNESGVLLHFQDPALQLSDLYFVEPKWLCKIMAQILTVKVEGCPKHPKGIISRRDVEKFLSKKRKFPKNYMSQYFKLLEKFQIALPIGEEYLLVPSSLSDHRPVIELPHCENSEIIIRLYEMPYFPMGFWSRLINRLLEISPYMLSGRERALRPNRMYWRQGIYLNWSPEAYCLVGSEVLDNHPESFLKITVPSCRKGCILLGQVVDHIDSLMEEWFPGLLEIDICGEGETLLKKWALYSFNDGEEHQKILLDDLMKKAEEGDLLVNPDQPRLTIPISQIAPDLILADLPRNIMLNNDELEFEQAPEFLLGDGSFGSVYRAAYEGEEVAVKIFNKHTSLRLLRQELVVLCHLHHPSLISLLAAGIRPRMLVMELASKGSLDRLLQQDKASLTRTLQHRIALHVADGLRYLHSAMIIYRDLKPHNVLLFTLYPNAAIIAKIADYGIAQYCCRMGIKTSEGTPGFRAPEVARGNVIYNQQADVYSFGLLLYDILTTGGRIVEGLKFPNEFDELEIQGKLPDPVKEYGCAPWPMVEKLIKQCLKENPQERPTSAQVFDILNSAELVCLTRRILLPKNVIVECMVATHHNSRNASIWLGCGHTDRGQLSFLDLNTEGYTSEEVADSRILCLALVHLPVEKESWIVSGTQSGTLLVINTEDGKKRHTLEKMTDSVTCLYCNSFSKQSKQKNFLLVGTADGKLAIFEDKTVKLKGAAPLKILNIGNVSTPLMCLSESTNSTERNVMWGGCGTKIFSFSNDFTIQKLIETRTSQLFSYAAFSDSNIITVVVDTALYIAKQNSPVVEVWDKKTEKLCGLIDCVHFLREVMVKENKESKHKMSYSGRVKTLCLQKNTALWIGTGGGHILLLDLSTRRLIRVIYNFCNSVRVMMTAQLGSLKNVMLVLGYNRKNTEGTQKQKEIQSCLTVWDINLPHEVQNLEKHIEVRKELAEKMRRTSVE
T2 sequence (Q16584 whole entry): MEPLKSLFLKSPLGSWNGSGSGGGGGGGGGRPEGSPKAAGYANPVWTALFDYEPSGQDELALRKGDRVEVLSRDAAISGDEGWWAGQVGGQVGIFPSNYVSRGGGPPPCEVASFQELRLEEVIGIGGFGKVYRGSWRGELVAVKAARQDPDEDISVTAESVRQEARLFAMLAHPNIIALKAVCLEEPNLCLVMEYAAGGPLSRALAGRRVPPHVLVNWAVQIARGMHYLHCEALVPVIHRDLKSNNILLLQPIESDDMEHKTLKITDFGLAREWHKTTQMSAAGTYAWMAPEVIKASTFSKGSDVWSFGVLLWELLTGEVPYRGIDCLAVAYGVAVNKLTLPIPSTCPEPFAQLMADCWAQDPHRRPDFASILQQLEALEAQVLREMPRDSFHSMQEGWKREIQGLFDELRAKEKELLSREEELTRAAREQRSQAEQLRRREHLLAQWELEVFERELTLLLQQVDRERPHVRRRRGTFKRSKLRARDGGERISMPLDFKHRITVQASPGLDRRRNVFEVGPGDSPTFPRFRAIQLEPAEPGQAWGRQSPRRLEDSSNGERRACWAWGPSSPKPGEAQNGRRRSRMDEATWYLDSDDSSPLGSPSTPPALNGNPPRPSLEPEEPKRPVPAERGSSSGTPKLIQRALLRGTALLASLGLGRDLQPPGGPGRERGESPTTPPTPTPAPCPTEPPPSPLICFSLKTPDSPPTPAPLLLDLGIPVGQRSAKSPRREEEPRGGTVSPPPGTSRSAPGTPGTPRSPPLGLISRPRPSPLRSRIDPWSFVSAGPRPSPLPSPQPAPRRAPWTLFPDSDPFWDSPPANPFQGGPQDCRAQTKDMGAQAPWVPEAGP

Structure (SMILES) | IC50 [1] [nM] | Cell viability (% of Con. 10 μM) HepG2 (HepG2 cancer cells) | IC50 [2] [nM] | Cell viability (% of Con. 10 μM) HS746T (HS746T cancer cells)
CC(C)C1c2cc(Nc3ncc(Cl)c(Nc4ccccc4P(C)(C)=O)n3)ccc2CCN1C(=O)C(F)(F)F (centres unmarked) [compound 53, 1-(7-((5-Chloro-4-((2-(dimethylphosphoryl)phenyl)amino)pyrimidin-2-yl)amino)-1-isopropyl-3,4-dihydroisoquinolin-2(1H)-yl)-2,2,2-trifluoroethan-1-one] | 1 to 10 | 23 % of Con. | 1 to 10 | 14 % of Con.
CP(C)(=O)c1ccccc1Nc1nc(Nc2ccc3nc(S)sc3c2)ncc1Cl [compound 23, (2-((5-Chloro-2-((2-mercaptobenzo[d]thiazol-6-yl)amino)pyrimidin-4-yl)amino)phenyl)dimethylphosphine oxide] | 10 to 100 | 27 % of Con. | 10 to 100 | 26 % of Con.
CC(C)S(=O)(=O)c1ccccc1Nc1nc(Nc2cc(F)c(Br)c(F)c2)ncc1Cl [compound 4, N^2-(4-Bromo-3,5-difluorophenyl)-5-chloro-N^4-(2-(isopropylsulfonyl)phenyl)pyrimidine-2,4-diamine] | 10 to 100 |  | 100 to 1000 | 
CP(C)(=O)c1ccccc1Nc1nc(Nc2ccc3c(c2)CN(C(=O)C(F)(F)F)C3)ncc1Cl [compound 72, 1-(5-((5-Chloro-4-((2-(dimethylphosphoryl)phenyl)amino)pyrimidin-2-yl)amino)isoindolin-2-yl)-2,2,2-trifluoroethan-1-one] | 1 to 10 | 35 % of Con. | 10 to 100 | 9 % of Con.
CP(C)(=O)c1ccccc1Nc1nc(NCc2ccc(F)cc2)ncc1Cl [compound 12, (2-((5-Chloro-2-((4-fluorobenzyl)amino)pyrimidin-4-yl)amino)phenyl)dimethylphosphine oxide] | > 1000 | 85 % of Con. | > 1000 | 97 % of Con.
CP(C)(=O)c1ccccc1Nc1nc(Nc2ccc3c(c2)C(=O)NCC3)ncc1Cl [compound 41, 7-((5-Chloro-4-((2-(dimethylphosphoryl)phenyl)amino)pyrimidin-2-yl)amino)-3,4-dihydroisoquinolin-1(2H)-one] | 10 to 100 | 26 % of Con. | 1 to 10 | 33 % of Con.
CP(C)(=O)c1ccccc1Nc1nc(Nc2ccc3[nH]nc(Br)c3c2)ncc1Cl [compound 67, (2-((2-((3-Bromo-1H-indazol-5-yl)amino)-5-chloropyrimidin-4-yl)amino)phenyl)dimethylphosphine oxide] | 1 to 10 | 33 % of Con. | 1 to 10 | 25 % of Con.
CP(C)(=O)c1ccccc1Nc1nc(Nc2ccc3[nH]nc(-c4ccc(S(C)(=O)=O)cc4)c3c2)ncc1Cl [compound 114, (2-((5-Chloro-2-((3-(4-(methylsulfonyl)phenyl)-1H-indazol-5-yl)amino)pyrimidin-4-yl)amino)phenyl)dimethylphosphine oxide] | 10 to 100 | 68 % of Con. | 1 to 10 | 33 % of Con.
CC(C)S(=O)(=O)c1ccccc1Nc1nc(Nc2cc(F)cc(F)c2)ncc1Cl [compound 6, 5-Chloro-N^2-(3,5-difluorophenyl)-N^4-(2-(isopropylsulfonyl)phenyl) pyrimidine-2,4-diamine] | 100 to 1000 |  | 100 to 1000 | 
CC(C)S(=O)(=O)c1ccccc1Nc1nc(Nc2cc(C(F)(F)F)cc(C(F)(F)F)c2)ncc1Cl [compound 5, N^2-(3,5-bis(trifluoromethyl)phenyl)-5-chloro-N^4-(2-(isopropylsulfonyl)phenyl)pyrimidine-2,4-diamine] | 100 to 1000 |  | 10 to 100 | 
CP(C)(=O)c1ccccc1Nc1nc(Nc2ccc3[nH]nc(C4=CCNCC4)c3c2)ncc1Cl [compound 91] | 1 to 10 |  | 1 to 10 | 5.8 % of Con.
CC(C)S(=O)(=O)c1ccccc1Nc1nc(Nc2cc(Cl)cc(Cl)c2)ncc1Cl [compound 2, 5-Chloro-N^2-(3,5-dichlorophenyl)-N^4-(2-(isopropylsulfonyl)phenyl) pyrimidine-2,4-diamine] | 100 to 1000 |  | 100 to 1000 | 
CP(C)(=O)c1ccccc1Nc1nc(Nc2cnc3[nH]ncc3c2)ncc1Cl [compound 82, (2-((2-((1H-Pyrazolo[3,4-b]pyridin-5-yl)amino)-5-chloropyrimidin-4-yl)amino)phenyl)dimethylphosphine oxide] | 10 to 100 |  | 10 to 100 | 18 % of Con.
CP(C)(=O)c1ccccc1Nc1nc(Nc2ccc3[nH]nc(-c4ccc(C=O)o4)c3c2)ncc1Cl [compound 92, 5-(5-((5-Chloro-4-((2-(dimethylphosphoryl)phenyl)amino)pyrimidin-2-yl)amino)-1H-indazol-3-yl)furan-2-carbaldehyde] | 1 to 10 |  | 1 to 10 | 14.1 % of Con.
CP(C)(=O)c1ccccc1Nc1nc(Nc2ccc3[nH]nc(-c4cn[nH]c4)c3c2)ncc1Cl [compound 84, (2-((2-((3-(1H-Pyrazol-4-yl)-1H-indazol-5-yl)amino)-5-chloropyrimidin-4-yl)amino)phenyl)dimethylphosphine oxide] | 1 to 10 |  | 1 to 10 | 11 % of Con.
CP(C)(=O)c1ccccc1Nc1nc(Nc2cnc3[nH]ccc3c2)ncc1Cl [compound 79, (2-((2-((1H-Pyrrolo[2,3-b]pyridin-5-yl)amino)-5-chloropyrimidin-4-yl)amino)phenyl)dimethylphosphine oxide] | 1 to 10 |  | 10 to 100 | 19 % of Con.
CC(C)(C)OC(=O)N1CC=C(c2n[nH]c3ccc(Nc4ncc(Cl)c(Nc5ccccc5P(C)(C)=O)n4)cc23)CC1 [compound 85, Tert-butyl 4-(5-((5-chloro-4-((2-(dimethylphosphoryl)phenyl)amino)pyrimidin-2-yl)amino)-1H-indazol-3-yl)-3,6-dihydropyridine-1(2H)-carboxylate] | 1 to 10 |  | 1 to 10 | 6 % of Con.
Cc1cc(C)cc(Nc2ncc(Cl)c(Nc3ccccc3S(=O)(=O)C(C)C)n2)c1 [compound 3, 5-Chloro-N^2-(3,5-dimethylphenyl)-N^4-(2-(isopropylsulfonyl)phenyl) pyrimidine-2,4-diamine] | 100 to 1000 |  | 100 to 1000 | 
Cn1ncc2cc(Nc3ncc(Cl)c(Nc4ccccc4P(C)(C)=O)n3)cnc21 [compound 78] | 1 to 10 |  | 10 to 100 | 17 % of Con.
CP(C)(=O)c1ccccc1Nc1nc(Nc2ccc3[nH]nc(-c4cccnc4F)c3c2)ncc1Cl [compound 83, (2-((5-Chloro-2-((3-(2-fluoropyridin-3-yl)-1H-indazol-5-yl)amino)pyrimidin-4-yl)amino)phenyl)dimethylphosphine oxide] | 1 to 10 |  | 1 to 10 | 11 % of Con.
